Measurements as given in ChEMBL document CHEMBL1221220, “Transport and signaling via the amino acid binding site of the yeast Gap1 amino acid transceptor” (Nat Chem Biol, 2009).
Numbering of substitutions follows the chain as printed. Active and inactive are the calls of the source. The rule behind the calls is not given here.

Tests used:
[1] = tested on: T1, General amino-acid permease GAP1 (Saccharomyces cerevisiae), P19145 [A393C]; assay: Induction of yeast Gap1 A393C mutant-mediated amino acid uptake at 2 mM in presence of 10 mM MTSEA treated before compound addition
T1 sequence (whole entry): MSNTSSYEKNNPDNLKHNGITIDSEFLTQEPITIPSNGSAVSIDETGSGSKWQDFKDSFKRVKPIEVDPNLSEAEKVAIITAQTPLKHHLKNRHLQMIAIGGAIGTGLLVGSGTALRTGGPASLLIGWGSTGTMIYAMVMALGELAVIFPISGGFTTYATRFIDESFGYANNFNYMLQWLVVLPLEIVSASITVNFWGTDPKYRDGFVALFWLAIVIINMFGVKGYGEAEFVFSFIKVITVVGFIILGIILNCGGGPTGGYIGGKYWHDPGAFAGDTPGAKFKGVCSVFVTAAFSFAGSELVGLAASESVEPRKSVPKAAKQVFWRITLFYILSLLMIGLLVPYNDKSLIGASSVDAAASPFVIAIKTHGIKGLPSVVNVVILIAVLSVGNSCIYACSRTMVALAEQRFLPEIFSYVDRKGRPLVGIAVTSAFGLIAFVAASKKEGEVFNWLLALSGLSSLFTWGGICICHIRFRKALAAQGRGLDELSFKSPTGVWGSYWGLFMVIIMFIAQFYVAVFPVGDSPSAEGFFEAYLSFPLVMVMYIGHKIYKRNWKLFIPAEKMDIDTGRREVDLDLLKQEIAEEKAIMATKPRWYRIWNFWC

[2] = tested on: T2, General amino-acid permease GAP1 (Saccharomyces cerevisiae), P19145 [R399C]; assay: Induction of yeast Gap1 R399C mutant-mediated trehalose activation at 10 mM
T2 sequence (whole entry): T1 sequence (whole entry) with C393A, R399C

[3] = tested on: T3, General amino-acid permease GAP1 (Saccharomyces cerevisiae), P19145 [A405C]; assay: Induction of yeast Gap1 A405C mutant-mediated trehalose activation at 10 mM
T3 sequence (whole entry): T1 sequence (whole entry) with C393A, A405C

[4] = target: T4, General amino-acid permease GAP1 (Saccharomyces cerevisiae) (UniProt P19145); assay: Induction of nitrogen-starved wild type sigma1278b yeast Gap1-mediated trehalase activation at 2 mM in presence of 10 mM MTSEA treated before compound addition
T4 sequence (whole entry): T1 sequence (whole entry) with C393A

Activity [1]: Active
Activity [2]: inactive
Activity [3]: inactive
inhibition [4]: Active
Structure (SMILES): NC(=O)NCCC[C@H](N)C(=O)O
